# Measured values reported in ChEMBL document CHEMBL3259542, “Design, synthesis and pharmacological evaluation of novel polycyclic heteroarene ethers as PDE10A inhibitors: Part I” (Bioorg Med Chem Lett, 2014).
# Key:
# [1] = molecular target: cGMP-dependent 3',5'-cyclic phosphodiesterase (Homo sapiens) (UniProt O00408); assay: Inhibition of N-terminal GST-tagged human recombinant PDE2A assessed as substrate hydrolysis using cAMP as substrate at 10 uM after 30 mins by homogenous time-resolved fluorescence method
# [2] = species on record: Homo sapiens; assay: Selectivity for human recombinant PDE10A over human recombinant PDE2A
# [3] = molecular target: T1, cAMP and cAMP-inhibited cGMP 3',5'-cyclic phosphodiesterase 10A (Homo sapiens, UniProt Q9Y233); assay: Inhibition of N-terminal GST-tagged human recombinant PDE10A assessed as substrate hydrolysis using [3H]cAMP as substrate at 1 uM after 30 mins by two-step radiometric assay
# T1 sequence (Q9Y233 whole entry): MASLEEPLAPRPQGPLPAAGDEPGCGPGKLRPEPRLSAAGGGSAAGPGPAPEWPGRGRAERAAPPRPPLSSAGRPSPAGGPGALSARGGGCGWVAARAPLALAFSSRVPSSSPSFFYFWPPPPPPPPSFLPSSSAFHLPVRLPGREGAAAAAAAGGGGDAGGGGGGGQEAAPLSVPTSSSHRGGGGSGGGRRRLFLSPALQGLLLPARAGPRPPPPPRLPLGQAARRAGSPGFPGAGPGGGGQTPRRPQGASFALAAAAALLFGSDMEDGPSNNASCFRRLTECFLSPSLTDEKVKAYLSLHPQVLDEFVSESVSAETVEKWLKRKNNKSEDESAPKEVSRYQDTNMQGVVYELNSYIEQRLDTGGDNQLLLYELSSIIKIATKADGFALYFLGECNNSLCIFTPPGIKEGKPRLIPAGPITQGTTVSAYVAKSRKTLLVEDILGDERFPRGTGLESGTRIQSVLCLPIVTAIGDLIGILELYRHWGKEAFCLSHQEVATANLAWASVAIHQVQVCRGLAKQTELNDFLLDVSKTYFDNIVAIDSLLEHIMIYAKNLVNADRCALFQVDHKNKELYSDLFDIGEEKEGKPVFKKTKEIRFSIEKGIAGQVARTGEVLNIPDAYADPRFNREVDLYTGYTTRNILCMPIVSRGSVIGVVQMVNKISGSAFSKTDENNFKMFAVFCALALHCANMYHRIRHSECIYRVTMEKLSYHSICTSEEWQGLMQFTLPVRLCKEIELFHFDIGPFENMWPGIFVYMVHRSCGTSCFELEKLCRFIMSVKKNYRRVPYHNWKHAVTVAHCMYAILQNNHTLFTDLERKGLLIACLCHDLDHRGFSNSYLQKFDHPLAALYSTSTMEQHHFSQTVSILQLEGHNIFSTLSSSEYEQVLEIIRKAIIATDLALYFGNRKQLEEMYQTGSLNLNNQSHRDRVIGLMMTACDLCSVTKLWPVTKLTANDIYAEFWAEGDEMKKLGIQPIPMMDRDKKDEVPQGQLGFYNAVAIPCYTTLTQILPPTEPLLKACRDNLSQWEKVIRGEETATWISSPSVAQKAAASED
# [4] = molecular target: T1, cAMP and cAMP-inhibited cGMP 3',5'-cyclic phosphodiesterase 10A; assay: Inhibition of N-terminal GST-tagged human recombinant PDE10A assessed as substrate hydrolysis using [3H]cAMP as substrate after 30 mins by two-step radiometric assay
# [5] = Metabolic stability in rat liver microsomes assessed as compound remaining at 1 uM after 60 mins; format: ADME; settings: read-out: Stability
# [6] = Metabolic stability in human liver microsomes assessed as compound remaining at 1 uM after 60 mins; format: ADME; settings: read-out: Stability
# [7] = molecular target: Dual specificity calcium/calmodulin-dependent 3',5'-cyclic nucleotide phosphodiesterase 1A (Homo sapiens) (UniProt P54750); assay: Inhibition of N-terminal GST-tagged human recombinant PDE1A assessed as substrate hydrolysis using [3H]cAMP as substrate at 1 uM after 30 mins by two-step radiometric assay
# Sequence of Dual specificity calcium/calmodulin-dependent 3',5'-cyclic nucleotide phosphodiesterase 1A (Homo sapiens) (P54750 whole entry): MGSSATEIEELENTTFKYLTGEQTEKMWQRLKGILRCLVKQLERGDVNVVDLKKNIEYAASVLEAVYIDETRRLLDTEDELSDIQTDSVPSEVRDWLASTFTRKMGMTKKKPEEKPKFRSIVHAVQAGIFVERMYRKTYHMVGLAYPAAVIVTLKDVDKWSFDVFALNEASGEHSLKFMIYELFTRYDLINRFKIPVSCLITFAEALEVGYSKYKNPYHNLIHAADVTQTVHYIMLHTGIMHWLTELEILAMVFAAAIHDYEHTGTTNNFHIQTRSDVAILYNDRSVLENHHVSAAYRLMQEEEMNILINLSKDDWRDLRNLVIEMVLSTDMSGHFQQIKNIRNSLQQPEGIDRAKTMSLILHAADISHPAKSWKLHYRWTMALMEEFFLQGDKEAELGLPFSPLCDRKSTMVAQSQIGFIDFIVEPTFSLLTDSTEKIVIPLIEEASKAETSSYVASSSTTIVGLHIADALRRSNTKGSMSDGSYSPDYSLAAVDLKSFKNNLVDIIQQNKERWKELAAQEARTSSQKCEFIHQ
# [8] = molecular target: cGMP-dependent 3',5'-cyclic phosphodiesterase (Homo sapiens) (UniProt O00408); assay: Inhibition of N-terminal GST-tagged human recombinant PDE2A assessed as substrate hydrolysis using cAMP as substrate at 1 uM after 30 mins by homogenous time-resolved fluorescence method
# [9] = molecular target: cGMP-inhibited 3',5'-cyclic phosphodiesterase 3A (Homo sapiens) (UniProt Q14432); assay: Inhibition of N-terminal GST-tagged human recombinant PDE3A assessed as substrate hydrolysis using cAMP as substrate at 1 uM after 30 mins by homogenous time-resolved fluorescence method
# [10] = molecular target: 3',5'-cyclic-AMP phosphodiesterase 4D (Homo sapiens) (UniProt Q08499); assay: Inhibition of N-terminal GST-tagged human recombinant PDE4D assessed as substrate hydrolysis using [3H]cAMP as substrate at 1 uM after 30 mins by two-step radiometric assay
# Sequence of 3',5'-cyclic-AMP phosphodiesterase 4D (Homo sapiens) (Q08499 whole entry): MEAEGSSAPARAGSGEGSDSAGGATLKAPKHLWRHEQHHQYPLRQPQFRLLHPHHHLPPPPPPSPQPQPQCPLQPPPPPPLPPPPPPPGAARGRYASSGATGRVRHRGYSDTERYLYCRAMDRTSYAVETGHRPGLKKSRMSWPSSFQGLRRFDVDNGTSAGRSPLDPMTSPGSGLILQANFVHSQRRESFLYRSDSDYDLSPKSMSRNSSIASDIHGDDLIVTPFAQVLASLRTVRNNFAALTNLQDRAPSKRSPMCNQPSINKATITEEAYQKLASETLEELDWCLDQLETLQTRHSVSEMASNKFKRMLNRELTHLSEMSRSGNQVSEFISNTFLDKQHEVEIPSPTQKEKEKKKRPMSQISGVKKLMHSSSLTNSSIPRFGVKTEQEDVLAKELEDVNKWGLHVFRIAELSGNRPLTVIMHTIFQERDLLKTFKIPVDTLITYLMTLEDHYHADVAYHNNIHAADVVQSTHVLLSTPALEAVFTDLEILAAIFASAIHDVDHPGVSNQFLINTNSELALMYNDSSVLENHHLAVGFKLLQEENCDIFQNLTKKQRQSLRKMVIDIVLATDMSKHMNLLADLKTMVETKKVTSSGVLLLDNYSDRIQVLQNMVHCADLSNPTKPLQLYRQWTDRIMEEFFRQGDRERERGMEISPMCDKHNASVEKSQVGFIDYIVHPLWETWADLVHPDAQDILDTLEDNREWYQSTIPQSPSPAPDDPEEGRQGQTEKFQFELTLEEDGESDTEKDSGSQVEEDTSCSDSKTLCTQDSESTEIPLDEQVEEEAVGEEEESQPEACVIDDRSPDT
# [11] = molecular target: cGMP-specific 3',5'-cyclic phosphodiesterase (Homo sapiens) (UniProt O76074); assay: Inhibition of N-terminal GST-tagged human recombinant PDE5A assessed as substrate hydrolysis using [3H]cGMP as substrate at 1 uM after 30 mins by two-step radiometric assay
# [12] = molecular target: High affinity 3',5'-cyclic-AMP phosphodiesterase 7A (Homo sapiens) (UniProt Q13946); assay: Inhibition of N-terminal GST-tagged human recombinant PDE7A assessed as substrate hydrolysis using [3H]cAMP as substrate at 1 uM after 30 mins by two-step radiometric assay
# Sequence of High affinity 3',5'-cyclic-AMP phosphodiesterase 7A (Homo sapiens) (Q13946 whole entry): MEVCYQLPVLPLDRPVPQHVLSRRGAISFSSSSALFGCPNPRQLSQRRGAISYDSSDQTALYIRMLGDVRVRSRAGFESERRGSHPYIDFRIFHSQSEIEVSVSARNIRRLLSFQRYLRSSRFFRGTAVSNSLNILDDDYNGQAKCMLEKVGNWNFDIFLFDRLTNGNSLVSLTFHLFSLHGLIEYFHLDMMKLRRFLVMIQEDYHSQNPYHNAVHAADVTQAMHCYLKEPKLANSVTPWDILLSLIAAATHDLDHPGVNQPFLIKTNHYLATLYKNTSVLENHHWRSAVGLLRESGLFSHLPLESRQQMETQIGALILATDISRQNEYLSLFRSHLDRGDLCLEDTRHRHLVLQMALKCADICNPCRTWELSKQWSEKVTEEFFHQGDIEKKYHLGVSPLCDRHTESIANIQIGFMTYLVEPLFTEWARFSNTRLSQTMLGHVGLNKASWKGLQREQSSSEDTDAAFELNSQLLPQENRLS
# [13] = molecular target: High affinity cAMP-specific and IBMX-insensitive 3',5'-cyclic phosphodiesterase 8A (Homo sapiens) (UniProt O60658); assay: Inhibition of N-terminal GST-tagged human recombinant PDE8A assessed as substrate hydrolysis using [3H]cAMP as substrate at 1 uM after 30 mins by two-step radiometric assay
# Sequence of High affinity cAMP-specific and IBMX-insensitive 3',5'-cyclic phosphodiesterase 8A (Homo sapiens) (O60658 whole entry): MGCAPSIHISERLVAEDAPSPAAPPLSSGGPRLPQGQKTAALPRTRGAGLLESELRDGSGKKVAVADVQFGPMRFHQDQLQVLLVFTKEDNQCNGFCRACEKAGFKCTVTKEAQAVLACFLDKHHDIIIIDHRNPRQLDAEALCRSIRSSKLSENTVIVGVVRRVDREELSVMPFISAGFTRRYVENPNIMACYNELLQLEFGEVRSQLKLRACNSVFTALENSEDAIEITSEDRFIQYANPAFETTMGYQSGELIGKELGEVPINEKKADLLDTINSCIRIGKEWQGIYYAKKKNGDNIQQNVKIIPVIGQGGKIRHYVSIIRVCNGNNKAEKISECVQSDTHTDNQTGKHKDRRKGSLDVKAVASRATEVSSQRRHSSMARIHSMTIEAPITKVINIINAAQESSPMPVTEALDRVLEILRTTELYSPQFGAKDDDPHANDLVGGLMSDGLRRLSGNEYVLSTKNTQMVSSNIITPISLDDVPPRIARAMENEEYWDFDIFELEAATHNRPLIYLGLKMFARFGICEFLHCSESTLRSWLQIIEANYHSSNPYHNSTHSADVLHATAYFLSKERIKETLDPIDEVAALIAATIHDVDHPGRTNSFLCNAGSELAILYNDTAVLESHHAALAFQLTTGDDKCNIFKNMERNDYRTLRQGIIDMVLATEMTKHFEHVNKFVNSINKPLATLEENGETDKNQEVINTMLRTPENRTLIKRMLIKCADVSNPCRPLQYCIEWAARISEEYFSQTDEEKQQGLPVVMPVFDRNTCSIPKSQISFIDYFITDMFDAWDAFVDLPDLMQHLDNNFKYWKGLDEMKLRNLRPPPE
# [14] = molecular target: High affinity cGMP-specific 3',5'-cyclic phosphodiesterase 9A (Homo sapiens) (UniProt O76083); assay: Inhibition of N-terminal GST-tagged human recombinant PDE9A assessed as substrate hydrolysis using [3H]cGMP as substrate at 1 uM after 30 mins by two-step radiometric assay
# [15] = molecular target: Dual 3',5'-cyclic-AMP and -GMP phosphodiesterase 11A (Homo sapiens) (UniProt Q9HCR9); assay: Inhibition of N-terminal GST-tagged human recombinant PDE11A assessed as substrate hydrolysis using [3H]cAMP as substrate at 1 uM after 30 mins by two-step radiometric assay
# Sequence of Dual 3',5'-cyclic-AMP and -GMP phosphodiesterase 11A (Homo sapiens) (Q9HCR9 whole entry, looked up): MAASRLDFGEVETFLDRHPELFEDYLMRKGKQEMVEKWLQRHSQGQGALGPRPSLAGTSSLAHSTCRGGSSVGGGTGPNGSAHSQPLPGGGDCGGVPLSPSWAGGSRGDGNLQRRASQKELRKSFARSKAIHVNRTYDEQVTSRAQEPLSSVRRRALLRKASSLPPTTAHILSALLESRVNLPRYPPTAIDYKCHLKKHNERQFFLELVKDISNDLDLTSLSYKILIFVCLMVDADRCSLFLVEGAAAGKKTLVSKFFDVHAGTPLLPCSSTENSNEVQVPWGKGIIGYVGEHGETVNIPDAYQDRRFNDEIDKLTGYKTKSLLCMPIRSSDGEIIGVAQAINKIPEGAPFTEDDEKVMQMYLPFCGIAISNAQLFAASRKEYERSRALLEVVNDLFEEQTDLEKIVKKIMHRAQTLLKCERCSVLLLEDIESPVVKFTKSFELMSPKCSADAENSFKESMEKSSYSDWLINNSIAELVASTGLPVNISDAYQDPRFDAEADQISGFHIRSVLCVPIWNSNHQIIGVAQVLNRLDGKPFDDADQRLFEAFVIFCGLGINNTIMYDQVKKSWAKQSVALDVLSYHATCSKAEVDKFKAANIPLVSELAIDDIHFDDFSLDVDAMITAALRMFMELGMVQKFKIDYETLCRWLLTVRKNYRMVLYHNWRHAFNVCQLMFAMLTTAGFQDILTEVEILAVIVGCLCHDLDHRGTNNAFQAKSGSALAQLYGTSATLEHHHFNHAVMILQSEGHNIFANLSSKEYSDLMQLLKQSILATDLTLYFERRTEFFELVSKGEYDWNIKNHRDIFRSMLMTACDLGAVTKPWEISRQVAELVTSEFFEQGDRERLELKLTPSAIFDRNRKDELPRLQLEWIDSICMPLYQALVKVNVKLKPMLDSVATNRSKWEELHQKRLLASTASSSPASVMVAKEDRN
# [16] = tested on: Liver microsome; assay: Drug level in rat liver microsomes treated with 9-Methyl-3-(2-{[3-(pyrimidin-5-yl)pyridin-2-yl]oxy}ethyl)-9H-pyrido[2,3-b]indole at 1 uM after 60 mins by LC-MS/MS analysis; format: ADME; settings: 1 h
# [17] = Retention time of the compound by HPLC analysis; format: physicochemical
# [18] = Cmax in Sprague-Dawley rat at 5 mg/kg, po; format: ADME, organism-based; set-up: dose 5 mg/kg, route oral; settings: in vivo
# [19] = AUC (0 to t) in Sprague-Dawley rat at 5 mg/kg, po; format: ADME, organism-based; set-up: dose 5 mg/kg, route oral; settings: plasma
# [20] = Drug uptake in Sprague-Dawley rat brain at 5 mg/kg, po after 1 hr; format: ADME, organism-based; set-up: dose 5 mg/kg, route oral; settings: read-out: Drug uptake
# [21] = tested on: Liver microsome; assay: Metabolic stability in rat liver microsomes assessed as metabolite M5 (2-(2-(9-methyl-9H-pyrido[2,3-b]indol-3-yl)vinyloxy)-3-(pyrimidin-5-yl)pyridine 1-oxide) formation at 1 uM after 60 mins by LC-MS/MS analysis; format: ADME; settings: 1 h
# [22] = tested on: Liver microsome; assay: Metabolic stability in rat liver microsomes assessed as metabolite M6 (3-(2-(3-(pyrimidin-5-yl)pyridin-2-yloxy)ethyl)-9H-pyrido[2,3-b]indole) formation at 1 uM after 60 mins by LC-MS/MS analysis; format: ADME; settings: 1 h
# [23] = tested on: Liver microsome; assay: Metabolic stability in rat liver microsomes assessed as metabolite M7 (9-methyl-3-(2-(3-(pyrimidin-5-yl)pyridin-2-yloxy)vinyl)-9H-pyrido[2,3-b]indole) formation at 1 uM after 60 mins by LC-MS/MS analysis; format: ADME; settings: 1 h
# [24] = tested on: Liver microsome; assay: Metabolic stability in rat liver microsomes assessed as metabolite M8 (1-(9-methyl-9H-pyrido[2,3-b]indol-3-yl)-2-(3-(pyrimidin-5-yl)pyridin-2-yloxy)ethanol) formation at 1 uM after 60 mins by LC-MS/MS analysis; format: ADME; settings: 1 h
# [25] = tested on: Liver microsome; assay: Metabolic stability in rat liver microsomes assessed as metabolite M9 (9-methyl-3-(2-(3-(pyrimidin-5-yl)pyridin-2-yloxy)vinyl)-9H-pyrido[2,3-b]indole) formation at 1 uM after 60 mins by LC-MS/MS analysis; format: ADME; settings: 1 h
# [26] = tested on: Liver microsome; assay: Metabolic stability in rat liver microsomes assessed as metabolite M1 (3-(2-(3-(pyrimidin-5-yl)pyridin-2-yloxy)ethyl)-9H-pyrido[23-b]indole 1-oxide) formation at 1 uM after 60 mins by LC-MS/MS analysis; format: ADME; settings: 1 h
# [27] = tested on: Liver microsome; assay: Metabolic stability in rat liver microsomes assessed as metabolite M2 (9-methyl-3-(2-(3-(pyrimidin-5-yl)pyridin-2-yloxy)vinyl)-9H-pyrido[2,3-b]indole 9-oxide) formation at 1 uM after 60 mins by LC-MS/MS analysis; format: ADME; settings: 1 h
# [28] = tested on: Liver microsome; assay: Metabolic stability in rat liver microsomes assessed as metabolite M3 (1-(9H-pyrido[2,3-b]indol-3-yl)-2-(3-(pyrimidin-5-yl)pyridin-2-yloxy)ethanol) formation at 1 uM after 60 mins by LC-MS/MS analysis; format: ADME; settings: 1 h
# [29] = tested on: Liver microsome; assay: Metabolic stability in rat liver microsomes assessed as metabolite M4 (9-methyl-3-(2-(3-(pyrimidin-5-yl)pyridin-2-yloxy)vinyl)-9H-pyrido[2,3-b]indole 1-oxide) formation at 1 uM after 60 mins by LC-MS/MS analysis; format: ADME; settings: 1 h
smiles,measurement,setting,value
Cn1c2ccccc2c2cc(CCOc3ncccc3-c3ccncc3)cnc21,inhibition,[1],60%
same,Selectivity ratio,[2],100
same,inhibition,[3],95.8%
same,IC50,[4],10.4 nM
same,"remaining at 1 h, 1 µM",[5],0.77%
same,"remaining at 1 h, 1 µM",[6],0.63%
same,inhibition,[7],40.9%
same,inhibition,[8],41.4%
same,inhibition,[9],0%
same,inhibition,[10],0.6%
same,inhibition,[11],36.5%
same,inhibition,[12],40.5%
same,inhibition,[13],11.2%
same,inhibition,[14],1.3%
same,inhibition,[15],17.4%
[O-][n+]1cc(CCOc2ncccc2-c2cncnc2)cc2c3ccccc3[nH]c21,Drug metabolism,[16],metabolite_detected
same,Retention_time,[17],6.78 min
Cn1c2ccccc2c2cc(CCCOc3ncccc3-c3cccnc3F)cnc21,inhibition,[3],48.9%
same,IC50,[4],5940 nM
c1cnc(OCCc2cnc3[nH]c4ccccc4c3c2)c(-c2cncnc2)c1,Drug metabolism,[16],metabolite_detected
same,Retention_time,[17],10.86 min
Cn1cc(COc2nccc(-c3ccc(F)cc3)n2)c2nc3ccccc3cc21,inhibition,[3],12.1%
OC(COc1ncccc1-c1cncnc1)c1cnc2[nH]c3ccccc3c2c1 (centres undefined),Drug metabolism,[16],metabolite_detected
same,Retention_time,[17],9.06 min
Cn1c2ccccc2c2cc(CCCOc3ncccc3-c3cncnc3)cnc21,inhibition,[3],43.1%
same,IC50,[4],3220 nM
Cn1c2ccccc2c2cc(CCCOc3ncccc3N3CCOCC3)cnc21,inhibition,[3],19.1%
Cn1c2ccccc2c2cc(CCOc3nccnc3-c3ccc(F)cc3)cnc21,inhibition,[1],60%
same,Selectivity ratio,[2],100
same,inhibition,[3],85.4%
same,IC50,[4],41.5 nM
same,"remaining at 1 h, 1 µM",[5],3.19%
same,"remaining at 1 h, 1 µM",[6],9.92%
same,inhibition,[7],13.5%
same,inhibition,[8],11.9%
same,inhibition,[9],0.1%
same,inhibition,[10],0.7%
same,inhibition,[11],5.9%
same,inhibition,[12],18.3%
same,inhibition,[13],0%
same,inhibition,[14],1.6%
same,inhibition,[15],18.6%
same,Cmax,[18],103 ng/mL
same,AUC(0-t),[19],190 ng·h/mL
same,concentration at 1 h,[20],< 5.4 ng/mL
Cn1c2ccccc2c2cc(COc3nccnc3-c3cncnc3)cnc21,inhibition,[3],10.9%
FC(F)(F)Cn1cc(-c2ccncc2)c(-c2ccc(OCc3ccc4ccccc4n3)cc2)n1,IC50,[4],1.41 nM
Cn1c2ccccc2c2cc(CCOc3ncccc3-c3ccc(F)cc3)cnc21,inhibition,[3],88.5%
same,IC50,[4],68.5 nM
FC(F)n1c2ccccc2c2cc(CCOc3ncccc3-c3cncnc3)cnc21,inhibition,[1],60%
same,Selectivity ratio,[2],100
same,inhibition,[3],96.3%
same,IC50,[4],33.2 nM
same,"remaining at 1 h, 1 µM",[5],41.2%
same,"remaining at 1 h, 1 µM",[6],51.1%
same,inhibition,[7],14%
same,inhibition,[8],40.6%
same,inhibition,[9],0.4%
same,inhibition,[10],3.8%
same,inhibition,[11],16.7%
same,inhibition,[12],20.8%
same,inhibition,[13],2.1%
same,inhibition,[14],5.3%
same,inhibition,[15],15.8%
Cn1c2ccccc2c2cc(/C=C\Oc3ncccc3-c3cncnc3)cnc21,Drug metabolism,[16],metabolite_detected
same,Retention_time,[17],10.86 min
Cn1c2ccccc2c2cc(COc3nccc(-c4ccc(F)cc4)n3)cnc21,inhibition,[3],23.9%
Cn1c2ccccc2c2cc(COc3nccc(-c4cncnc4)n3)cnc21,inhibition,[3],23.6%
Cn1c2ccccc2c2cc(CCOc3nccnc3-c3ccc(Cl)cc3)cnc21,inhibition,[3],87.2%
same,IC50,[4],188 nM
Cn1cc(CCOc2nccnc2-c2cncnc2)c2nc3ccccc3cc21,inhibition,[3],82.1%
same,IC50,[4],123 nM
same,"remaining at 1 h, 1 µM",[5],0.27%
same,"remaining at 1 h, 1 µM",[6],0.11%
Cn1c2ccccc2c2cc(/C=C/Oc3c(-c4cncnc4)ccc[n+]3[O-])cnc21,Drug metabolism,[16],metabolite_detected
same,Retention_time,[17],9.69 min
Cn1c2ccccc2c2cc(/C=C/Oc3ncccc3-c3cncnc3)cnc21,Drug metabolism,[16],metabolite_detected
same,Retention_time,[17],11.81 min
Cn1c2ccccc2c2cc(CCOc3ncccc3-c3cncnc3)cnc21,Drug metabolism,[21],metabolite_detected
same,Drug metabolism,[22],metabolite_detected
same,Drug metabolism,[23],metabolite_detected
same,Drug metabolism,[24],metabolite_detected
same,Drug metabolism,[25],metabolite_detected
same,Retention_time,[17],14.51 min
same,inhibition,[1],60%
same,Selectivity ratio,[2],100
same,inhibition,[3],92.5%
same,IC50,[4],24.2 nM
same,"remaining at 1 h, 1 µM",[5],1.93%
same,"remaining at 1 h, 1 µM",[6],0.45%
same,inhibition,[7],10.7%
same,inhibition,[8],67.2%
same,inhibition,[9],0%
same,inhibition,[10],25.8%
same,inhibition,[11],23.9%
same,inhibition,[12],20.7%
same,inhibition,[13],0%
same,inhibition,[14],9.8%
same,inhibition,[15],12.4%
same,Drug metabolism,[26],metabolite_detected
same,Drug metabolism,[27],metabolite_detected
same,Drug metabolism,[28],metabolite_detected
same,Drug metabolism,[29],metabolite_detected
Cn1cc(COc2ncccc2-c2cncnc2)c2nc3ccccc3cc21,inhibition,[3],30.7%
Cn1c2ccccc2c2cc(C(O)COc3ncccc3-c3cncnc3)cnc21 (centres undefined),Drug metabolism,[16],metabolite_detected
same,Retention_time,[17],11.55 min
Cn1c2ccccc2c2cc(C3(COc4ncccc4-c4cncnc4)CC3)cnc21,inhibition,[3],54.7%
same,IC50,[4],971 nM
same,"remaining at 1 h, 1 µM",[5],17.5%
same,"remaining at 1 h, 1 µM",[6],19.6%
Cn1c2ccccc2c2cc(CCOc3ncccc3-c3ccc(Cl)cc3)cnc21,inhibition,[3],75.7%
same,IC50,[4],592 nM
Cn1c2ccccc2c2cc(CCOc3nccnc3-c3ccncc3)cnc21,inhibition,[1],60%
same,Selectivity ratio,[2],100
same,inhibition,[3],97.2%
same,IC50,[4],11.2 nM
same,"remaining at 1 h, 1 µM",[5],1.03%
same,"remaining at 1 h, 1 µM",[6],0.72%
same,inhibition,[7],30.1%
same,inhibition,[8],34.5%
same,inhibition,[9],0.2%
same,inhibition,[10],11.9%
same,inhibition,[11],13.6%
same,inhibition,[12],27%
same,inhibition,[13],2%
same,inhibition,[14],4.3%
same,inhibition,[15],21.7%
Cn1c2ccccc2c2cc(/C=C/Oc3ncccc3-c3cncnc3)c[n+]([O-])c21,Drug metabolism,[16],metabolite_detected
same,Retention_time,[17],9.23 min
C[N+]1([O-])c2ccccc2-c2cc(/C=C/Oc3ncccc3-c3cncnc3)cnc21 (centres undefined),Drug metabolism,[16],metabolite_detected
same,Retention_time,[17],8.64 min
Cn1c2ccccc2c2cc(CCOc3nccnc3-c3cncnc3)cnc21,inhibition,[3],83.4%
same,IC50,[4],67.4 nM
Cn1cc(COc2ncccc2-c2ccncc2)c2nc3ccccc3cc21,inhibition,[3],24.6%
